Assay results taken from article PMC5513037, “Examining the influence of specificity ligands and ATP-competitive ligands on the overall effectiveness of bivalent kinase inhibitors” (Proteome Science, 2017).
pIC50: −log10 of the molar value.

Assays:
Assay in all cases: KAM-matrix competition in K562 lysate;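 on 0.001 uM KAM: median log10 fold change of treatment over DMSO control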;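 on 0.01 uM KAM: median log10 fold change of treatment over DMSO control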;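 on 0.1 uM KAM: median log10 fold change of treatment over DMSO control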;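 on 1 uM KAM: median log10 fold change of treatment over DMSO control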;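 on 10 uM KAM: median log10 fold change of treatment over DMSO control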
Type in all cases: binding
MAPK9 = target: T1, MAPK9 (Homo sapiens, UniProt P45984)
T1 construct: endogenous in cells; host or cells: K562
T1 sequence (P45984 whole entry): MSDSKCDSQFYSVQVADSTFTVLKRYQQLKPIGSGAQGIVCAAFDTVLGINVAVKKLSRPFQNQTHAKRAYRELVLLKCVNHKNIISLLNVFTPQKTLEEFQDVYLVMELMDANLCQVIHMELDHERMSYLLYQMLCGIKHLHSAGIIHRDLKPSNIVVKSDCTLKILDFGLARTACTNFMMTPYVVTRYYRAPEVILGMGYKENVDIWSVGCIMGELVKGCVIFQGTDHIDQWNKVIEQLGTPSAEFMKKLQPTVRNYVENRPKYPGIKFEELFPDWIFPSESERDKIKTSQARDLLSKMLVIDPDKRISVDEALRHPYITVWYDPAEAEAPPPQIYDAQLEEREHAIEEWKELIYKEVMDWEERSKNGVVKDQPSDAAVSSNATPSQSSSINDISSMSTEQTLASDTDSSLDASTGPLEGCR
Procedure: (§1) Supplement 12953_2017_125_MOESM1_ESM.zip/MS_Supp Info.xlsx, sheet "KAM" | column: 10 uM KAM; 1 uM KAM; 0.1 uM KAM; 0.01 uM KAM; 0.001 uM KAM; RB50

RIOK1 = target: T2, RIOK1 (Homo sapiens, UniProt Q9BRS2);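 on 0.001 uM KAM: median log10 fold change of treatment over DMSO control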;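 on 0.01 uM KAM: median log10 fold change of treatment over DMSO control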;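 on 0.1 uM KAM: median log10 fold change of treatment over DMSO control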;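 on 1 uM KAM: median log10 fold change of treatment over DMSO control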;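 on 10 uM KAM: median log10 fold change of treatment over DMSO control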
T2 construct: endogenous in cells; host or cells: K562
T2 sequence (Q9BRS2 1-568): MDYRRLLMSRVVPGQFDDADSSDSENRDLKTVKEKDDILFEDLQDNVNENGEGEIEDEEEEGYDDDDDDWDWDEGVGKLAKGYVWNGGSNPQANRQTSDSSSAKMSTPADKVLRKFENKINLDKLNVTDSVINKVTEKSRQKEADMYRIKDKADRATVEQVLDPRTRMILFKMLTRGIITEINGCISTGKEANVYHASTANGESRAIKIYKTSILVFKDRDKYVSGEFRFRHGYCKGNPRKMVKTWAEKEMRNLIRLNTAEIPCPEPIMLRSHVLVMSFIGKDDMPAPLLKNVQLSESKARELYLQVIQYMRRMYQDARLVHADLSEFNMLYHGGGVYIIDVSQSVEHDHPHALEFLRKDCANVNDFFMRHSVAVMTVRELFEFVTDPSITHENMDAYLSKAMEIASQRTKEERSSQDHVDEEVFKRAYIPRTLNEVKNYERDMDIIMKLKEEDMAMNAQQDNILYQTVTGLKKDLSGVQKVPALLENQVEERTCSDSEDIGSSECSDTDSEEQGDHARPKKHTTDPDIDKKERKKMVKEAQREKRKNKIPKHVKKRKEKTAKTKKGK
Procedure: as §1

CDK13 = target: T3, CDK13 (Homo sapiens, UniProt Q14004)
T3 construct: endogenous in cells; host or cells: K562
T3 sequence (Q14004 whole entry): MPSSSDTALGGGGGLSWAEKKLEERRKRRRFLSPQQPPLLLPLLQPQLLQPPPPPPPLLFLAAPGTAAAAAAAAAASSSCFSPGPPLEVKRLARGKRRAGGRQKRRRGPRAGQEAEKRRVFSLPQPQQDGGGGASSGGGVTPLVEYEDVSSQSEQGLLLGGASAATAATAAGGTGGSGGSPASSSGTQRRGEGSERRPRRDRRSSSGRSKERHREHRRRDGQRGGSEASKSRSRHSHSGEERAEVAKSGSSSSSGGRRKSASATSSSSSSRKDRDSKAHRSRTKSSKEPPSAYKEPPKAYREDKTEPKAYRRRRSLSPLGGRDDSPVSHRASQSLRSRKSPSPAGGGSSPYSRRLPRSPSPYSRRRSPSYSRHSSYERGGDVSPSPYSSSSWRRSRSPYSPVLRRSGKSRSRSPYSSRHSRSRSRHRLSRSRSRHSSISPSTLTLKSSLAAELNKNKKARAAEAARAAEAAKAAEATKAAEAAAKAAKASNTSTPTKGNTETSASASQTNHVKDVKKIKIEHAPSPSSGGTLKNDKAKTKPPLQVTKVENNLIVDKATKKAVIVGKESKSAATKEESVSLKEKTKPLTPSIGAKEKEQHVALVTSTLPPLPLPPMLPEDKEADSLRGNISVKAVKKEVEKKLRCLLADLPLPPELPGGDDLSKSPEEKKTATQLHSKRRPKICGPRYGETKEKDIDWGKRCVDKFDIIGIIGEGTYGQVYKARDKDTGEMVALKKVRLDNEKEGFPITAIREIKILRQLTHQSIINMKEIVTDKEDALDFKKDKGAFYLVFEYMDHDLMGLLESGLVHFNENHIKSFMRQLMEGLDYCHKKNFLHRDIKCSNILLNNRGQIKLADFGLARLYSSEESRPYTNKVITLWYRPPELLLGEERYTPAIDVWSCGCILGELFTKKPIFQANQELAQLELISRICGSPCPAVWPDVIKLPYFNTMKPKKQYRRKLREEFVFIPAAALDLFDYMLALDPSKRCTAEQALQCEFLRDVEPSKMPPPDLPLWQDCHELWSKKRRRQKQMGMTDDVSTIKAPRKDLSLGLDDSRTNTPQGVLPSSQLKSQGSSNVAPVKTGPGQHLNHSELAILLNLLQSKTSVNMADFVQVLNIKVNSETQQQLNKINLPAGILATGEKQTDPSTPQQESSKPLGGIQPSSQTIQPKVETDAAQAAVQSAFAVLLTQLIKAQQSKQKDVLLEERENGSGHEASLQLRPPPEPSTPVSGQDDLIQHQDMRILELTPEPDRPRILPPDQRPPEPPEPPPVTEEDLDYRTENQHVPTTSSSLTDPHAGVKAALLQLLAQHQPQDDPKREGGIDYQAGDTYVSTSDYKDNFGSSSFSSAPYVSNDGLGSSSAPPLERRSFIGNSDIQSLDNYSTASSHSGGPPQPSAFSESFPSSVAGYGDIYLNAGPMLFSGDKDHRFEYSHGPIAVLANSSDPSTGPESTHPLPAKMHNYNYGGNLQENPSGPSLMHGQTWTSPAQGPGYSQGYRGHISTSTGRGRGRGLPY
Procedure: as §1

BAZ1B = target: T4, BAZ1B (Homo sapiens, UniProt Q9UIG0);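 on 0.001 uM KAM: median log10 fold change of treatment over DMSO control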;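 on 0.01 uM KAM: median log10 fold change of treatment over DMSO control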;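 on 0.1 uM KAM: median log10 fold change of treatment over DMSO control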;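 on 1 uM KAM: median log10 fold change of treatment over DMSO control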;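 on 10 uM KAM: median log10 fold change of treatment over DMSO control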
T4 construct: endogenous in cells; host or cells: K562
T4 sequence (Q9UIG0 1-1483): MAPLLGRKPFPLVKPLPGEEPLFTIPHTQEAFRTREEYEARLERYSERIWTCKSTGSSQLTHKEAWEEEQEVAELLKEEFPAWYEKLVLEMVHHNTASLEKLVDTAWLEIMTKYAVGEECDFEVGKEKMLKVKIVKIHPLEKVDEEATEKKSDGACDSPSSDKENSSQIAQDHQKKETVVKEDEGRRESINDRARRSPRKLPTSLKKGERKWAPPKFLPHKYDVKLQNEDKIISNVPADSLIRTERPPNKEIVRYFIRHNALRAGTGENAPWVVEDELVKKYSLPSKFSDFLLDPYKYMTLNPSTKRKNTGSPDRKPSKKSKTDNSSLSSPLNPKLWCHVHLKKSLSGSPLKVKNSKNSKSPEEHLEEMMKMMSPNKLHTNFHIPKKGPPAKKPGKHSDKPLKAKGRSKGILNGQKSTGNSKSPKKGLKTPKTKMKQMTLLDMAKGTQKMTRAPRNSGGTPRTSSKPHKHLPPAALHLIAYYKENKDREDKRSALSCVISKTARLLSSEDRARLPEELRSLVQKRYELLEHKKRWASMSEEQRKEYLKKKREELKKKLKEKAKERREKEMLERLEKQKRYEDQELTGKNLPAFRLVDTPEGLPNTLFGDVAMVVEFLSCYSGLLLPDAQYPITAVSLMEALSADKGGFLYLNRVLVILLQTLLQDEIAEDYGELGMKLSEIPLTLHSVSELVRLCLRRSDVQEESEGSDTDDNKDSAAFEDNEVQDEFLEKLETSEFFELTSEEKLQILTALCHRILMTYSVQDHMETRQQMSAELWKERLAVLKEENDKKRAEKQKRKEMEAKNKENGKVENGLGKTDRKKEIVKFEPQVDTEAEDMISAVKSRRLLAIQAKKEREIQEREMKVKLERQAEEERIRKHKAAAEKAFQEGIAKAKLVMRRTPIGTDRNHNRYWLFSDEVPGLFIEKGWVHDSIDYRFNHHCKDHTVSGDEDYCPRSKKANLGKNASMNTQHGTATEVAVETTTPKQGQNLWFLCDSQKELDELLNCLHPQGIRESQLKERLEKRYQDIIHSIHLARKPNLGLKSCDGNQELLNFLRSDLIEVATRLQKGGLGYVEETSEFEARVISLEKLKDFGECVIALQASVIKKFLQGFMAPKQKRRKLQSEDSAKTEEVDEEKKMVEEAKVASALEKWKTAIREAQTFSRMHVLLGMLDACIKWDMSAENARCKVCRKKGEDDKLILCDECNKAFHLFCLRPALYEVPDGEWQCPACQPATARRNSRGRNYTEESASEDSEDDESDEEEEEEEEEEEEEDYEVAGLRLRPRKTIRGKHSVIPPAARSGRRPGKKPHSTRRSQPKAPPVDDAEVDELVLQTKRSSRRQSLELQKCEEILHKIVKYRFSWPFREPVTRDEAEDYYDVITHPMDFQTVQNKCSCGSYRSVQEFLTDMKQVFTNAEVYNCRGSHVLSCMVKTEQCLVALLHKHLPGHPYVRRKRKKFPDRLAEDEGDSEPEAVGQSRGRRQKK
Procedure: as §1

MAP2K1 = target: T5, MAP2K1 (Homo sapiens, UniProt Q02750)
T5 construct: endogenous in cells; host or cells: K562
T5 sequence (Q02750 whole entry): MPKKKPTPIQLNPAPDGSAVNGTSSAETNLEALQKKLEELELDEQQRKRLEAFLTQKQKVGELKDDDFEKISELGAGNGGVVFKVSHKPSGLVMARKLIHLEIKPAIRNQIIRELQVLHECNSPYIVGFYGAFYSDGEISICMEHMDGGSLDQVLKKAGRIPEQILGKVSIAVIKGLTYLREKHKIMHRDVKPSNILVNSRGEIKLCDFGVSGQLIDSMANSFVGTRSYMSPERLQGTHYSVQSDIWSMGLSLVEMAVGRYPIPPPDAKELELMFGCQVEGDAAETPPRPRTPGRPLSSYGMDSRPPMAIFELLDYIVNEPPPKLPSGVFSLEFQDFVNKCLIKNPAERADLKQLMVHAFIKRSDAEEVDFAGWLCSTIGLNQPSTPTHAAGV
Procedure: as §1

[1] = read-out: RB50 (the source's name)
[2] = KAM 0.001-10 uM, read-out: RB50 (the source's name)

For `N#CCc1ccc(Nc2nc(NCCCN)cc(Nc3cc(C4CC4)[nH]n3)n2)cc1` [KAM], the “median Log10 fold change” value (MAPK9; 0.001 uM KAM) was -0.01416, the “median Log10 fold change” value (MAPK9; 0.01 uM KAM) was -0.02342 and the “median Log10 fold change” value (MAPK9; 0.1 uM KAM) was -0.0954. The “median Log10 fold change” value (MAPK9; 1 uM KAM) was -0.2518, the “median Log10 fold change” value (MAPK9; 10 uM KAM) was -0.4014 and the pIC50 (MAPK9; [1]) was 5.68. For the same molecule, the pIC50 (RIOK1; [2]) was < 5.00, the “0.001 uM KAM” value (RIOK1; relative to 0 uM KAM = 0) was -0.005877 and the “0.01 uM KAM” value (RIOK1; relative to 0 uM KAM = 0) was -0.06085. The “0.1 uM KAM” value (RIOK1; relative to 0 uM KAM = 0) was -0.03934, the “1 uM KAM” value (RIOK1; relative to 0 uM KAM = 0) was 0.04921 and the “10 uM KAM” value (RIOK1; relative to 0 uM KAM = 0) was -0.001737. The “median Log10 fold change” value (CDK13; 0.001 uM KAM) was -0.01353, the “median Log10 fold change” value (CDK13; 0.01 uM KAM) was -0.006338 and the “median Log10 fold change” value (CDK13; 0.1 uM KAM) was -0.0866. For the same molecule, the “median Log10 fold change” value (CDK13; 1 uM KAM) was -0.2891, the “median Log10 fold change” value (CDK13; 10 uM KAM) was -0.4319 and the pIC50 (CDK13; [1]) was 5.83. The pIC50 (BAZ1B; [2]) was < 5.00, the “0.001 uM KAM” value (BAZ1B; relative to 0 uM KAM = 0) was -0.04632 and the “0.01 uM KAM” value (BAZ1B; relative to 0 uM KAM = 0) was -0.04267. The “0.1 uM KAM” value (BAZ1B; relative to 0 uM KAM = 0) was -0.03143, the “1 uM KAM” value (BAZ1B; relative to 0 uM KAM = 0) was -0.000154 and the “10 uM KAM” value (BAZ1B; relative to 0 uM KAM = 0) was -0.05532. For the same molecule, the “median Log10 fold change” value (MAP2K1; 0.001 uM KAM) was -0.01014, the “median Log10 fold change” value (MAP2K1; 0.01 uM KAM) was -0.05282 and the “median Log10 fold change” value (MAP2K1; 0.1 uM KAM) was -0.2542. The “median Log10 fold change” value (MAP2K1; 1 uM KAM) was -0.5685, the “median Log10 fold change” value (MAP2K1; 10 uM KAM) was -0.7087 and the pIC50 (MAP2K1; [1]) was 6.79.
